Experimental data taken from patent US10869846B2, “N-acetylcysteine amide (NAC amide) in the treatment of diseases and conditions associated with oxidative stress” (SENTIENT LIFESCIENCES, INC., priority 2005, dated 2020).

Experiments:
PC12 cells [1] = test: Morphological assessment of glutamate toxicity; assay type: cell-based; settings: 10 mM glutamate, 750 μM NAC amide, 24 hours
Method: Cell culture and toxicity studies: Stock culture of PC12 cells, purchased from ATCC, were grown in 75 cm^2 tissue culture flasks in RPMI 1640, supplemented with 10% (v/v) heat-inactivated horse serum, and 5% (v/v) fetal bovine serum, to which 1% (v/v) penicillin and streptomycin were added. Cultures were maintained at 37° C. in a humidified atmosphere containing 5% CO2. The cells were passaged twice a week. Unless specified, all of the experiments were performed using Dulbecco's modified Eagle's medium (DMEM) as differentiation medium, supplemented with 0.5% (v/v) fetal bovine serum, 1% (v/v) penicillin and streptomycin. PC12 cells were plated at a density of 25×10^3 cells/well in a 24-well, collagen-coated plate for morphological assessment. The plate was divided into five groups in triplicate: 1) control: no glutamate, no NAC amide; 2) Nerve Growth Factor (NGF) control: NGF (100 ng/ml), no glutamate, no NAC amide; 3) NAC amide only: NGF (100 ng/ml), no glutamate, NAC amide (750 μM); 4) glutamate only: NGF (100 ng/ml), glutamate (10 mM), no NAC amide; and 5) Glu+NAC amide: NGF (100 ng/ml), glutamate (10 mM), NAC amide (750 μM). […]
Glutamate toxicity was evaluated by 1) morphological assessment of PC12 cells in the presence of glutamate; 2) measuring the amount of LDH released in the media 24 h after glutamate exposure; and 3) measuring cell viability using the MTS assay. […]

PC12 cells [2] = test: MDA measurement in glutamate-exposed cells; assay type: cell-based; settings: 24 h
Method: MDA measurement: To prepare the solution, 350 μl of straight cell homogenate, 100 μl of 500 ppm BHT (butylated hydroxytoluene), and 550 μl of 10% TCA (trichloroacetic acid) were combined and boiled for 30 min. The tubes were cooled on ice and centrifuged for 10 min at 2500 rpm. Five hundred (500) μl of the supernatant were removed and 500 μl of TBA (thiobarbituric acid) were added. The tubes were boiled again for 30 min, and then cooled on ice. From this solution, 500 μl were removed, added to 1.0 ml of n-butanol, vortexed, and centrifuged for 5 min at 60 g to facilitate a phase separation. The top layer was then filtered through 0.45 μm filters and injected onto a 5 μm C18 column (250×4.6 mm) on a reverse phase HPLC system. The mobile phase consisted of 69.4% 5 mM sodium phosphate buffer (pH=7.0), 30% acetonitrile, and 0.6% THF (tetrahydrofuran). The excitation wavelength was 515 nm; the emission wavelength was 550 nm (Draper H. H. et al., Free Radic Biol Med., 15(4):353-63, 1993).
(§1) Cells were plated and grown for 24 hours, and then they were exposed to glutamate (10 mM) in the presence or absence of NAC amide (750 μM). Twenty-four hours later, the cells were harvested and malondialdehyde levels were measured. Values represent means.+−.SD. Statistically different values of *P<0.002 and **P<0.05 were determined, compared to control. ***P<0.05 compared to glutamate-treated group.

PC12 cells [3] = test: Cysteine levels in cells; assay type: cell-based; settings: NAC amide 750 μM, glutamate 10 mM, 24 h (FIG. 5)
Method: as §1, with “cysteine” for “malondialdehyde”, “means±SD.” for “means.+−.SD.”, “*P<0.005” for “*P<0.002”
GSH measurement: Cellular levels of GSH were determined by using the method as described in Winters R. A. et al., Anal Biochem., 227(1):14-21, 1995. Cells were seeded at a density of 80,000 cells/cm^2 on poly-D-lysine coated (0.05 mg/ml) 75 cm^2 flasks (5 ml/flask) for GSH measurement. After 24 hours, the flasks were incubated with fresh medium containing glutamate (10 mM), or BSO (0.2 mM) or Glu+BSO+NAC amide (750 μM) at […] for another 24 h. After the incubation period, cells were removed from the cultures and homogenized in serine borate buffer (100 mM Tris-HCl, 10 mM boric acid, 5 mM L-serine, 1 mM DETAPAC, pH 7.4). Twenty (20) μl of the diluted cell homogenate were added to 230 μl of serine borate buffer and 750 μl of NPM (1 mM in acetonitrile). The resulting solutions were incubated at room temperature for 5 min. The reaction was stopped by the addition of 5 μl of 2N HCl. The samples were then filtered through a 0.2 μm Acrodisc filter and injected onto the HPLC system.

red blood cells (RBCs) = settings: Grinberg et al. 2005; cited from earlier work
[4] = Wong et al. 1986; cited from earlier work

| Compound | protection from glutamate toxicity (neurite morphology, light microscopy) (PC12 cells [1]) | MDA Levels (PC12 cells [2]; GLU (10 mM) + NAC amide (750 μM)) | MDA Levels (PC12 cells [2]; NAC amide (750 μM) alone) | cysteine levels compared to the control group (PC12 cells [3]) | BuOOH-induced intracellular oxidation in red blood cells (red blood cells (RBCs)) | time increased hepatic GSH levels are maintained [4] |
| --- | --- | --- | --- | --- | --- | --- |
| N-acetylcysteine amide [NAC amide] | slightly decreasing the bleb formation on neurites | 88 ± 11 nM/100 mg protein | 81 ± 22 nM/100 mg protein | increase | inhibit | – |
| CC(=O)N[C@@H](CS)C(=O)O [NAC, N-acetylcysteine] | – | – | – | – | – | at least 6 hours |
